The values below come from US5508311A, “Aliphatic propargylamines as selective MAO-B inhibitors and as neuroprotective agents” (University of Saskatchewan, priority 1993, dated 1996).

The conditions of data set [1]: human, in vivo; cited from earlier work.
The subject of data set [2] is dopamine neurons. Conditions: animal study (Tatton); cited from earlier work.
In data set [3] the test system is Parkinson's disease. Conditions: Deprenyl alone; cited from earlier work.
The conditions of data set [4]: reported; cited from earlier work.
In data set [5] the target is T1, MAO-A (Mus musculus, UniProt Q64133).
T1 construct: MAO activities in the mouse brain after; from tissue
T1 sequence (Q64133 1-526): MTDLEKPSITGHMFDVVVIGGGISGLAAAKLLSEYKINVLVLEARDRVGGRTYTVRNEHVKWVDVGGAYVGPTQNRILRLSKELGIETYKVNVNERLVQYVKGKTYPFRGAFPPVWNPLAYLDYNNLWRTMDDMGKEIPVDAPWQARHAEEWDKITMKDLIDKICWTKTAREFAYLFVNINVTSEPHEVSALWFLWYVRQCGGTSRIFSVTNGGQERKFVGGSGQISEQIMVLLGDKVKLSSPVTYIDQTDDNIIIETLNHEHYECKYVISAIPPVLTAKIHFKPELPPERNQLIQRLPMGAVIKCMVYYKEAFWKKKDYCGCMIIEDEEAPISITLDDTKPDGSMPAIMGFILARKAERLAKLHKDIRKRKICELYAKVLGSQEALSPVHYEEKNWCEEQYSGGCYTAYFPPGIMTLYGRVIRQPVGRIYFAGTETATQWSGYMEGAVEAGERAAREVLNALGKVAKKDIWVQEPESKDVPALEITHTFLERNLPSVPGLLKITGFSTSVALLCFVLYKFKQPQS
Description: in vivo. Conditions: ip, 2 h, read-out: 5-HT ID50. On the procedure:
Albino Swiss mice were used in this study. The animals were injected intraperitoneally with different doses of the aliphatic propargylamines in 100 μL saline.
0.5, 1, 2, 5, 10, 20, 50, 100 mg/Kg. Striata were dissected from the brai
two hours after i.p. administration of the drugs. MAOA and MAOB activitie
were determined immediately. The values were estimated from doseresponse

Data set [6] addresses monoamine oxidase. Description: Inhibition of rat liver monoamine oxidase deamination of dopamine (DA, mixed-type MAO A and B substrate) in vitro. The format is biochemical. Conditions: substrate DA (5 × 10^-4 M), average of at least 3 independent experiments. The procedure: The aliphatic propargylamine inhibitors (from 1×10^-10 M to 1×10^-4 M) were preincubated with the MAO for 20 min. at ambient room temperature and then the residual enzyme activities were determined by addition of the substrates, followed by further incubation at 37° C. for 30 min. The enzymatic reactions were terminated by the addition of citric acid and the aldehyde products were extracted with toluene: ethyl acetate (1:1, v/v) and the radio-activities assessed in a scintillation counter.

For `CC(C)NNC(=O)c1ccncc1` [Iproniazid], the “adverse effects leading to withdrawal” value in data set [1] was “hepatic toxicity and occasional hypertensive crises”.

`C#CCN(C)[C@H](C)Cc1ccccc1` [Deprenyl]: the “protection of dopamine neurons after MPTP washed out” value in data set [2] was “shown to protect dopamine neurons even after the MPTP has been completely washed out of the tissues”. For the same compound, the “onset of disability in early, otherwise untreated Parkinson's disease” value in data set [3] is given as “can significantly delay the onset of disability”. In addition, the LD50 (commonly the dose at which mortality reaches 50%) in data set [4] was 445 mg/kg. Besides, in data set [5], the ED50 stood at 25 mg/kg. In addition, in data set [6], the IC50 (as a rule, the concentration that inhibits the measured activity by half) stood at 300 nM.
